{"source": "patent US6376510B1", "about": "“Neuromuscular relaxants” (Newlaxant LLC, priority 1997, dated 2002)", "key": {"[1]": {"tested_on": "anesthetized rats (evoked responses of anterior tibial muscle)", "assay": "In vivo neuromuscular block and cardiovascular side effects, anesthetized rat (Example 8, Table 3)", "conditions": "for ED50: Rattus norvegicus, iv; for VB (vagal block) / ΔBP (change in arterial blood pressure) / ΔH (change in heart rate) / RI (recovery index) / Onset: rat; for VB (vagal block) / ΔBP (change in arterial blood pressure) / ΔH (change in heart rate): at 80-85% neuromuscular blocking dose; for RI (recovery index): spontaneous recovery, 25-75% neuromuscular response; for Onset: time to 80-85% neuromuscular block", "in_short": "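Pentobarbital-anesthetized (i.p.), ventilated adult male rats given saline-dissolved agents i.v.; anterior tibial EMG responses to supramaximal single or train-of-four sciatic/peroneal stimuli, plus 0.1 or 1 Hz stimulation. Doses for 50%, 80%, 90% block derived. Onset: minutes to 80-85% block; RI: 25-75% spontaneous recovery; vagal block, heart rate and blood pressure changes (%) at 80-85% blocking dose.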"}, "[2]": {"tested_on": "dogs", "assay": "animal or person", "assay_type": "in vivo", "conditions": "dog; for ED50: Canis lupus familiaris, intravenous dose causing 50% neuromuscular block, read-out: ED50; for ΔBP (change in arterial blood pressure) / ΔH (change in heart rate): at 80-85% neuromuscular blocking dose; for RI (recovery index): spontaneous recovery, 25-75% neuromuscular response; for Onset: time to 80-85% neuromuscular block"}, "[3]": {"tested_on": "rabbits", "assay": "In vivo neuromuscular block and cardiovascular side effects, rabbit (Example 8, Table 7)", "conditions": "for ED50: Oryctolagus cuniculus, intravenous dose causing 50% neuromuscular block, read-out: ED50; for ΔBP (change in arterial blood pressure) / ΔH (change in heart rate): at 80-85% neuromuscular blocking dose; for RI (recovery index): spontaneous recovery, 25-75% neuromuscular response; for Onset: time to 80-85% neuromuscular block"}, "[4]": {"tested_on": "anesthetized monkeys", "assay": "In vivo neuromuscular block and cardiovascular side effects, monkey (Example 8, Table 6)", "conditions": "for ED50: Primates, intravenous dose causing 50% neuromuscular block, read-out: ED50; for ΔBP (change in arterial blood pressure) / ΔH (change in heart rate): at 80-85% neuromuscular blocking dose; for RI (recovery index): spontaneous recovery, 25-75% neuromuscular response; for Onset: time to 80-85% neuromuscular block", "in_short": "(§1)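 Electromyographic and mechanomyographic responses quantified. Monkeys sedated with intramuscular ketamine, then general anesthesia with intravenous pentobarbital and propofol; juvenile pigs induced with inhaled halothane.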"}, "[5]": {"tested_on": "anesthetized cats (evoked responses of anterior tibial muscle)", "assay": "animal or person", "conditions": "for ED50: Felis catus, iv; for VB (vagal block) / ΔBP (change in arterial blood pressure) / ΔH (change in heart rate) / RI (recovery index) / Onset: cat; for VB (vagal block) / ΔBP (change in arterial blood pressure) / ΔH (change in heart rate): at 80-85% neuromuscular blocking dose; for RI (recovery index): spontaneous recovery, 25-75% neuromuscular response; for Onset: time to 80-85% neuromuscular block", "in_short": "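Adult cats anesthetized i.p. with 70 mg/kg alpha chloralose plus 0.5 g/kg ethylurethane; agents in saline given i.v. Anterior tibial muscle responses to supramaximal single or train-of-four stimuli of sciatic or peroneal nerve recorded electromyographically and mechanomyographically, alongside blood pressure and heart rate.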"}, "[6]": {"tested_on": "anesthetized juvenile pigs", "assay": "animal or person", "assay_type": "in vivo", "conditions": "pig; for ED50: Sus scrofa, intravenous dose causing 50% neuromuscular block, read-out: ED50; for VB (vagal block) / ΔBP (change in arterial blood pressure) / ΔH (change in heart rate): at 80-85% neuromuscular blocking dose; for RI (recovery index): spontaneous recovery, 25-75% neuromuscular response; for Onset: time to 80-85% neuromuscular block", "in_short": "as §1"}}}
{"smiles": "CC(=O)Oc1ccc(C[N+]2(C)[C@@H]3CC[C@H]2C[C@@H](OC(=O)C2CCC2C(=O)O[C@H]2C[C@H]4CC[C@@H](C2)[N+]4(C)Cc2ccc(OC(C)=O)c(OC(C)=O)c2)C3)cc1OC(C)=O.[Br-].[Br-]", "note": "(stereo partly drawn) [bis[N-(3,4-diacetoxybenzyl)tropanium-3α-yl]cyclobutane-1,2-dicarboxylate dibromide]", "values": [{"measurement": "ED50", "setting": "[1]", "value": 0.218, "unit": "mg/kg"}, {"measurement": "VB (vagal block)", "setting": "[1]", "value": 5, "unit": "%"}, {"measurement": "ΔBP (change in arterial blood pressure)", "setting": "[1]", "value": 0, "unit": "%"}, {"measurement": "ΔH (change in heart rate)", "setting": "[1]", "value": 0, "unit": "%"}, {"measurement": "RI (recovery index)", "setting": "[1]", "value": 0.45, "unit": "min"}, {"measurement": "Onset", "setting": "[1]", "value": 0.7, "unit": "min"}, {"measurement": "ED50", "setting": "[2]", "value": 0.1, "unit": "mg/kg"}, {"measurement": "ΔBP (change in arterial blood pressure)", "setting": "[2]", "value": "−7", "unit": "%"}, {"measurement": "ΔH (change in heart rate)", "setting": "[2]", "value": 10, "unit": "%"}, {"measurement": "RI (recovery index)", "setting": "[2]", "value": 0.65, "unit": "min"}, {"measurement": "Onset", "setting": "[2]", "value": 0.9, "unit": "min"}, {"measurement": "ED50", "setting": "[3]", "value": 0.078, "unit": "mg/kg"}, {"measurement": "ΔBP (change in arterial blood pressure)", "setting": "[3]", "value": 0, "unit": "%"}, {"measurement": "ΔH (change in heart rate)", "setting": "[3]", "value": 0, "unit": "%"}, {"measurement": "RI (recovery index)", "setting": "[3]", "value": 0.6, "unit": "min"}, {"measurement": "Onset", "setting": "[3]", "value": 0.8, "unit": "min"}, {"measurement": "ED50", "setting": "[4]", "value": 0.054, "unit": "mg/kg"}, {"measurement": "ΔBP (change in arterial blood pressure)", "setting": "[4]", "value": 0, "unit": "%"}, {"measurement": "ΔH (change in heart rate)", "setting": "[4]", "value": 0, "unit": "%"}, {"measurement": "RI (recovery index)", "setting": "[4]", "value": 0.4, "unit": "min"}, {"measurement": "Onset", "setting": "[4]", "value": 0.95, "unit": "min"}, {"measurement": "ED50", "setting": "[5]", "value": 0.135, "unit": "mg/kg"}, {"measurement": "VB (vagal block)", "setting": "[5]", "value": 12, "unit": "%"}, {"measurement": "ΔBP (change in arterial blood pressure)", "setting": "[5]", "value": 0, "unit": "%"}, {"measurement": "ΔH (change in heart rate)", "setting": "[5]", "value": 0, "unit": "%"}, {"measurement": "RI (recovery index)", "setting": "[5]", "value": 0.5, "unit": "min"}, {"measurement": "Onset", "setting": "[5]", "value": 0.95, "unit": "min"}, {"measurement": "ED50", "setting": "[6]", "value": 0.275, "unit": "mg/kg"}, {"measurement": "VB (vagal block)", "setting": "[6]", "value": 42, "unit": "%"}, {"measurement": "ΔBP (change in arterial blood pressure)", "setting": "[6]", "value": 0, "unit": "%"}, {"measurement": "ΔH (change in heart rate)", "setting": "[6]", "value": 0, "unit": "%"}, {"measurement": "RI (recovery index)", "setting": "[6]", "value": 0.85, "unit": "min"}, {"measurement": "Onset", "setting": "[6]", "value": 0.68, "unit": "min"}]}
{"smiles": "CC(=O)Oc1ccc(C[N+]2(C)[C@@H]3CC[C@H]2C[C@@H](OC(=O)CCCC(=O)O[C@H]2C[C@H]4CC[C@@H](C2)[N+]4(C)Cc2ccc(OC(C)=O)c(OC(C)=O)c2)C3)cc1OC(C)=O.[Br-].[Br-]", "note": "(stereo partly drawn) [bis[N-(3,4-diacetoxybenzyl)tropanium-3α-yl]glutarate dibromide]", "values": [{"measurement": "ED50", "setting": "[1]", "value": 0.232, "unit": "mg/kg"}, {"measurement": "VB (vagal block)", "setting": "[1]", "value": 10, "unit": "%"}, {"measurement": "ΔBP (change in arterial blood pressure)", "setting": "[1]", "value": 0, "unit": "%"}, {"measurement": "ΔH (change in heart rate)", "setting": "[1]", "value": 0, "unit": "%"}, {"measurement": "RI (recovery index)", "setting": "[1]", "value": 0.6, "unit": "min"}, {"measurement": "Onset", "setting": "[1]", "value": 0.75, "unit": "min"}, {"measurement": "ED50", "setting": "[2]", "value": 0.11, "unit": "mg/kg"}, {"measurement": "ΔBP (change in arterial blood pressure)", "setting": "[2]", "value": 0, "unit": "%"}, {"measurement": "ΔH (change in heart rate)", "setting": "[2]", "value": 0, "unit": "%"}, {"measurement": "RI (recovery index)", "setting": "[2]", "value": 0.6, "unit": "min"}, {"measurement": "Onset", "setting": "[2]", "value": 0.9, "unit": "min"}, {"measurement": "ED50", "setting": "[3]", "value": 0.065, "unit": "mg/kg"}, {"measurement": "ΔBP (change in arterial blood pressure)", "setting": "[3]", "value": 0, "unit": "%"}, {"measurement": "ΔH (change in heart rate)", "setting": "[3]", "value": 0, "unit": "%"}, {"measurement": "RI (recovery index)", "setting": "[3]", "value": 0.7, "unit": "min"}, {"measurement": "Onset", "setting": "[3]", "value": 0.9, "unit": "min"}, {"measurement": "ED50", "setting": "[4]", "value": 0.088, "unit": "mg/kg"}, {"measurement": "ΔBP (change in arterial blood pressure)", "setting": "[4]", "value": 0, "unit": "%"}, {"measurement": "ΔH (change in heart rate)", "setting": "[4]", "value": 0, "unit": "%"}, {"measurement": "RI (recovery index)", "setting": "[4]", "value": 0.8, "unit": "min"}, {"measurement": "Onset", "setting": "[4]", "value": 1, "unit": "min"}, {"measurement": "ED50", "setting": "[5]", "value": 0.183, "unit": "mg/kg"}, {"measurement": "VB (vagal block)", "setting": "[5]", "value": 8, "unit": "%"}, {"measurement": "ΔBP (change in arterial blood pressure)", "setting": "[5]", "value": 0, "unit": "%"}, {"measurement": "ΔH (change in heart rate)", "setting": "[5]", "value": 0, "unit": "%"}, {"measurement": "RI (recovery index)", "setting": "[5]", "value": 0.6, "unit": "min"}, {"measurement": "Onset", "setting": "[5]", "value": 1, "unit": "min"}, {"measurement": "ED50", "setting": "[6]", "value": 0.23, "unit": "mg/kg"}, {"measurement": "VB (vagal block)", "setting": "[6]", "value": 41, "unit": "%"}, {"measurement": "ΔBP (change in arterial blood pressure)", "setting": "[6]", "value": 0, "unit": "%"}, {"measurement": "ΔH (change in heart rate)", "setting": "[6]", "value": 0, "unit": "%"}, {"measurement": "RI (recovery index)", "setting": "[6]", "value": 1.1, "unit": "min"}, {"measurement": "Onset", "setting": "[6]", "value": 0.95, "unit": "min"}]}
